# Experimental data reported in patent US11485732B2, “Compounds and uses thereof” (Foghorn Therapeutics Inc., priority 2020, dated 2022).
# pIC50: −log10 of the molar value.
# Columns and labels:
# [1] = system: uveal melanoma and hematologic cancer cell lines versus the other tested cell lines; experiment: Growth of uveal melanoma, hematological and other cancer cell lines, day 3 and day 7, Cell-titer glo (Example 7); type: cell-based
# [2] = system: uveal melanoma, hematologic cancer, prostate cancer, breast cancer, and Ewing's sarcoma cell lines versus the other tested cell lines; conditions: 0 to 10 μM; day 3 and day 7
# [3] = system: Uveal melanoma cell lines (92-1, MP41, MP38, MP46) and non-small cell lung cancer cells (NCIH1299); experiment: 3-day growth inhibition, Cell-titer glow (Example 12); type: cell-based; conditions: 0 to 10 μM, 3 days
# parental MP41 cells = experiment: 7-day growth inhibition assay, parental cells (Example 14)
# [4] = Body weight change of tumor-bearing mice (Example 16); type: in vivo; conditions: all treatments, once daily oral gavage, 3 weeks
# [5] = system: PKC inhibitor (PKCi)-resistant MP41 uveal melanoma cells; experiment: 7-day growth inhibition assay, PKC inhibitor-resistant cells (Example 14)
# BRM = BRM (Homo sapiens, UniProt P51531); experiment: biochemical
# BRM, sequence (P51531 whole entry): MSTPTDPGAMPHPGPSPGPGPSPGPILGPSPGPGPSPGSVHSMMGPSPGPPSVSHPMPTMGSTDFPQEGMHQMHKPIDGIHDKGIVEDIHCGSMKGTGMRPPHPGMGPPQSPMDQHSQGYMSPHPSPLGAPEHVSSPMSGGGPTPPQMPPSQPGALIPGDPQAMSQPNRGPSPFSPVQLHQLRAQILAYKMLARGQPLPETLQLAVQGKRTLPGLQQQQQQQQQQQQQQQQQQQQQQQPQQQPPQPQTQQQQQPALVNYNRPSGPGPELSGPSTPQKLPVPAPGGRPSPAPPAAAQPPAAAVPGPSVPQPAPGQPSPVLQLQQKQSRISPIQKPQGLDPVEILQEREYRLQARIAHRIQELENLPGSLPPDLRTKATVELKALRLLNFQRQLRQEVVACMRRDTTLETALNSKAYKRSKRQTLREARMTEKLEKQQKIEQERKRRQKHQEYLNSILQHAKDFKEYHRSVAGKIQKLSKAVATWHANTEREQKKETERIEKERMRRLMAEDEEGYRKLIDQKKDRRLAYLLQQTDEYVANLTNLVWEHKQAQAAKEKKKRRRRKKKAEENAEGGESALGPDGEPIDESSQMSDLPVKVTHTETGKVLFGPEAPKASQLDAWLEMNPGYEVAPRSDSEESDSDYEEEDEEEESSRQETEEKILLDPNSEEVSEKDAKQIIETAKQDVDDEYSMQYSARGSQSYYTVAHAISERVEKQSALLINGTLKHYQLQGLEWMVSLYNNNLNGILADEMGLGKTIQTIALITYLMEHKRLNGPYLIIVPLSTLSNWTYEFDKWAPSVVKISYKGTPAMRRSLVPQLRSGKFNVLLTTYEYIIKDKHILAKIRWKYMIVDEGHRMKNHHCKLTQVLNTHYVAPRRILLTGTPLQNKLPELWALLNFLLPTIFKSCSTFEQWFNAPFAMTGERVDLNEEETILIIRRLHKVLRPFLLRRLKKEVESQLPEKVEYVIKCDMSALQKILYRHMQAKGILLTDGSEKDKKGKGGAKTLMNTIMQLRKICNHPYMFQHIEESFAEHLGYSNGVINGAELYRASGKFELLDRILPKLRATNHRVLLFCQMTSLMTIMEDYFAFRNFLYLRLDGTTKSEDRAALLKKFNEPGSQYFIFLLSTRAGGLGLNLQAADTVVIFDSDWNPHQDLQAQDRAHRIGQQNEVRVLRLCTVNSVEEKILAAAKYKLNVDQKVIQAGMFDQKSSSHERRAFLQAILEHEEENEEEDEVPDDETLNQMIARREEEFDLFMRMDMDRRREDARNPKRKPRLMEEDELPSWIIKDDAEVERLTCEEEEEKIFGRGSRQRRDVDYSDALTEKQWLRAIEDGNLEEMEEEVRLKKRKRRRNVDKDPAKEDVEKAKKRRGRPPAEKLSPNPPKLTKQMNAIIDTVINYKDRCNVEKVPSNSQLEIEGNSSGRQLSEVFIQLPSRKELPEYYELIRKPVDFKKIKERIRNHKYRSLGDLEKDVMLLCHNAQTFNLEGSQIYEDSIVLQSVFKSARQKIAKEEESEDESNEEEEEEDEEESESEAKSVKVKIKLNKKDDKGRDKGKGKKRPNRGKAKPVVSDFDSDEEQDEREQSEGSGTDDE
# [6] = system: Uveal melanoma cell lines (92-1, MEL202, MP41, MP38, MP46), prostate cancer cells (22RV1), acute leukemia cells (EOL1, THP1), and histocytic lymphoma cells …; experiment: 3-day growth inhibition, Cell-titer glow, all cell lines (Example 17); type: cell-based; conditions: 0 to 2 μM (uveal melanoma) or 0 to 1 μM (other cell lines), 3 days
# [7] = system: 92-1 uveal melanoma cells; experiment: Uveal melanoma tumor growth inhibition in vivo (Example 18); set-up: species or system Nude mice; conditions: once daily oral gavage, increasing doses, 3 weeks
# [8] = Body weight change of tumor-bearing mice (Example 18); type: in vivo; conditions: all treatments, once daily oral gavage, 3 weeks
smiles,measurement,setting,value
CSCC[C@H](NC(=O)c1ccc(N)cc1)C(=O)Nc1nc(-c2cccc(-c3ccncc3)c2)cs1 [Compound A],"sensitivity of cell lines to growth inhibition (GI50, FIG. 1)","[1]; 0 to 10 μM, day 3 and day 7",more sensitive to BRG1/BRM inhibition than the other tested cell lines
same,duration of growth inhibition,[1]; uveal melanoma and hematologic cancer cell lines,maintained through day 7
CSCC[C@H](NC(=O)c1ccn(S(C)(=O)=O)c1)C(=O)Nc1nc(-c2cccc(-c3ccncc3)c2)cs1 [Compound B],sensitivity of cell lines to growth inhibition (FIG. 4),[2],more sensitive to BRG1/BRM inhibition than the other tested cell lines
same,growth inhibition (FIG. 6),[3],potent growth inhibition in the cell lines
same,"growth inhibition, parental MP41 cell line (FIG. 10)",parental MP41 cells,strong growth inhibition
C[C@@H]1CN(c2cccc(-c3csc(NC(=O)CNC(=O)c4ccn(C(C)(C)C)c4)n3)n2)C[C@H](C)O1 [Compound C],"tolerability, body weight change (FIG. 13)",[4],well tolerated with no body weight loss observed
CC1(N)CCN(c2cccnc2NC(=O)c2nc(-c3ncccc3C(F)(F)F)cnc2N)CC1 [LXS196],"sensitivity of PKCi-resistant cells relative to parental MP41 cells (FIG. 9, FIG. 10)",[5],could tolerate growth at higher concentrations of LXS196 than could the parental MP41 cell line
"[2H]C([2H])([2H])OC([2H])([2H])[C@@H](NC(=O)c1ccn(S(C)(=O)=O)c1)C(=O)Nc1nc(-c2cccc(N3C[C@@H](C)O[C@@H](C)C3)n2)cs1 [N—((R)-1-((4-(6-(cis-2,6-dimethylmorpholino)pyridin-2-yl)thiazol-2-yl)amino)-3-(methoxy-d3)-1-oxopropan-2-yl-3,3-d2)-1-(methylsulfonyl)-1H-pyrrole-3-carboxamide]",pIC50,BRM,6.35
"[2H]C([2H])([2H])OC([2H])([2H])[C@H](NC(=O)c1ccn(S(C)(=O)=O)c1)C(=O)Nc1nc(-c2cccc(N3C[C@@H](C)O[C@@H](C)C3)n2)cs1 [N—((S)-1-((4-(6-(cis-2,6-dimethylmorpholino)pyridin-2-yl)thiazol-2-yl)amino)-3-(methoxy-d3)-1-oxopropan-2-yl-3,3-d2)-1-(methylsulfonyl)-1H-pyrrole-3-carboxamide]",pIC50,BRM,8.34
"COC[C@H](NC(=O)c1ccn(S(C)(=O)=O)c1)C(=O)Nc1nc(-c2cccc(N3C[C@@H](C)O[C@@H](C)C3)n2)cs1 [N—((S)-1-((4-(6-(cis-2,6-dimethylmorpholino)pyridin-2-yl)thiazol-2-yl)amino)-3-methoxy-1-oxopropan-2-yl)-1-(methylsulfonyl)-1H-pyrrole-3-carboxamide]",pIC50,BRM,8.41
same,growth inhibition (FIG. 14),[6],potent growth inhibition in all the cell lines
same,tumor growth inhibition (FIG. 15),[7],tumor growth inhibition in a dose-dependent manner
same,tolerability based on % body weight change (FIG. 16),[8],well tolerated
